The source of these data is article PMC5564600 (Oncotarget, 2017).

What all share (test): biochemical
Holding throughout (assay type): binding

The target in assay [1] is T1, panel of 442 kinases (Homo sapiens, UniProt P51817).
T1 construct: purchased Ambit Biosciences (scanMAXX KINOMEscan)
T1 sequence (P51817 1-358): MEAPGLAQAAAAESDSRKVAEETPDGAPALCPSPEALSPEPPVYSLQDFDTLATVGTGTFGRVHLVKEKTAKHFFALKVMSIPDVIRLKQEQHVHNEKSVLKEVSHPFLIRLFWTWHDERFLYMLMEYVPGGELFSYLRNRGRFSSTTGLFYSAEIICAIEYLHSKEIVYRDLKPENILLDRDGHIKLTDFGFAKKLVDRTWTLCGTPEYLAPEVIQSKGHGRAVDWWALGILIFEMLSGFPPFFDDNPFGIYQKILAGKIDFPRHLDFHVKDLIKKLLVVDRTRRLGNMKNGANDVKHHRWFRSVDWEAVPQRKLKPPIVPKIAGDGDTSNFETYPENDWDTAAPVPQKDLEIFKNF
The following applies: kinase PRKX; for remaining activity at 1 µM: read-out: PRKX (% of control at 1 µM).

For assay [2], the target named is T2, panel of 442 kinases (Homo sapiens, UniProt Q52WX2).
T2 construct: purchased Ambit Biosciences (scanMAXX KINOMEscan)
The following applies: kinase SBK1; for remaining activity at 1 µM: read-out: SBK1 (% of control at 1 µM).

The target of assay [3] is T3, panel of 442 kinases (Homo sapiens, UniProt P57059).
T3 construct: purchased Ambit Biosciences (scanMAXX KINOMEscan)
The following applies: kinase SIK; for remaining activity at 1 µM: read-out: SIK (% of control at 1 µM).

In assay [4] the target is T4, panel of 442 kinases (Homo sapiens, UniProt Q9Y243).
T4 construct: purchased Ambit Biosciences (scanMAXX KINOMEscan)
The following applies: AKT3; for remaining activity at 1 µM: read-out: % of control at 1 µM.

In assay [5] the target is T5, panel of 442 kinases (Homo sapiens, UniProt Q86Y07).
T5 construct: purchased Ambit Biosciences (scanMAXX KINOMEscan)
Conditions: kinase VRK2; for remaining activity at 1 µM: read-out: VRK2 (% of control at 1 µM).

Assay [6] concerns the target T6, panel of 442 kinases (Homo sapiens, UniProt O00444).
T6 construct: purchased Ambit Biosciences (scanMAXX KINOMEscan)
T6 sequence (O00444 1-970): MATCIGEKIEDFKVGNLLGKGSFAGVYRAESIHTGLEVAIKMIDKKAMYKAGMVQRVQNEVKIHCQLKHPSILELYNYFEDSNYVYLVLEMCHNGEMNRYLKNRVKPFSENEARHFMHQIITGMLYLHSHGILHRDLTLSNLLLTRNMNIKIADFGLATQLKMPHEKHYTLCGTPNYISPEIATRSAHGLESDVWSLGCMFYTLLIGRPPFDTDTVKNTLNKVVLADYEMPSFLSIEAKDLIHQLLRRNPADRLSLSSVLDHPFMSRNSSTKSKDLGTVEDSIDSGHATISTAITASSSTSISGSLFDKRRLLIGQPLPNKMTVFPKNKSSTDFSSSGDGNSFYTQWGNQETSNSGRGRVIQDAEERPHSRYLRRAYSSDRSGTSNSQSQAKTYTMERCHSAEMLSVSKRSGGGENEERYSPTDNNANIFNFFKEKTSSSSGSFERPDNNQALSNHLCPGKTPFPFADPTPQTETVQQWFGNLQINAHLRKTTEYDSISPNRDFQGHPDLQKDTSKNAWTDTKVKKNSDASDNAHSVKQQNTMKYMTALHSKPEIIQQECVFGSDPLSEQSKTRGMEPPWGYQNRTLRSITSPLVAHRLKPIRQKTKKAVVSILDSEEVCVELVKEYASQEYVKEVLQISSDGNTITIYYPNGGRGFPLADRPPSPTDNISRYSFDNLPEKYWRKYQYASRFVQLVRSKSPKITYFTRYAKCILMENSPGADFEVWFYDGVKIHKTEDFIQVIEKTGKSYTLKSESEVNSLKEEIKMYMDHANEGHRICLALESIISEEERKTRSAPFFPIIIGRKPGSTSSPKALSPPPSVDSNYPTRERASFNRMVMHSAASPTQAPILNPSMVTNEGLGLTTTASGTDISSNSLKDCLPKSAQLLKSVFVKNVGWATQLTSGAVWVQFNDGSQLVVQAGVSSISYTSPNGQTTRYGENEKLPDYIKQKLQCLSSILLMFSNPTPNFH
Conditions: kinase PLK4; for remaining activity at 1 µM: read-out: PLK4 (% of control at 1 µM).

The target in assay [7] is T7, panel of 442 kinases (Homo sapiens, UniProt Q12866).
T7 construct: purchased Ambit Biosciences (scanMAXX KINOMEscan)
T7 sequence (Q12866 21-999): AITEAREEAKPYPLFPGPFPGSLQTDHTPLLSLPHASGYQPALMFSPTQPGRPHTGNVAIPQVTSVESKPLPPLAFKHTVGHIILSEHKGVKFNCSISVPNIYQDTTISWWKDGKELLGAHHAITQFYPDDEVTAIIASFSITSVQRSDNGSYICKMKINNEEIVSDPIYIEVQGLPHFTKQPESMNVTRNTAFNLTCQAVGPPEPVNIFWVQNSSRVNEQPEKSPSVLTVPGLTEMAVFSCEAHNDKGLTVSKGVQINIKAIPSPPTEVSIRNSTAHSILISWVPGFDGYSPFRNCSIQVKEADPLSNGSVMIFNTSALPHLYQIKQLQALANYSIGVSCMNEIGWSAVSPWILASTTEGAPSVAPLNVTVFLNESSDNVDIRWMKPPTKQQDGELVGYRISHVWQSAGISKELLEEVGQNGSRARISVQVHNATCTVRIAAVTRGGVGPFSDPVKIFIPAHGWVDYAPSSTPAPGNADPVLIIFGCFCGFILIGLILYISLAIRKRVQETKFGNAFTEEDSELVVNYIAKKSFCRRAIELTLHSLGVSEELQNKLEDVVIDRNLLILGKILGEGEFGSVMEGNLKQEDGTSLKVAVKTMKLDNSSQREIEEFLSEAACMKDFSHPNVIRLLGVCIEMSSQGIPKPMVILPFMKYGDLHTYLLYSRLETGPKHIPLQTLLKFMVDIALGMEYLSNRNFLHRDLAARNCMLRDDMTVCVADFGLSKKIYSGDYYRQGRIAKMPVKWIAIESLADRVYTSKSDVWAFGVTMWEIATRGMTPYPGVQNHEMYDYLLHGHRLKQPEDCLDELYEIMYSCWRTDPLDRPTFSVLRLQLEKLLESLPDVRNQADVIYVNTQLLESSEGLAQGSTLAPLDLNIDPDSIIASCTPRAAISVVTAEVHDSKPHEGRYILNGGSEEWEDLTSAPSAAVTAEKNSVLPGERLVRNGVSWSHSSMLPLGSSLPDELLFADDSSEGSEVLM
The following applies: kinase MERTK; for remaining activity at 1 µM: read-out: % of control at 1 µM.

[8] abbreviates: 10 µM, read-out: % of control at 10 µM.

Each structure is given as a SMILES string.

T4 sequence (Q9Y243 whole entry): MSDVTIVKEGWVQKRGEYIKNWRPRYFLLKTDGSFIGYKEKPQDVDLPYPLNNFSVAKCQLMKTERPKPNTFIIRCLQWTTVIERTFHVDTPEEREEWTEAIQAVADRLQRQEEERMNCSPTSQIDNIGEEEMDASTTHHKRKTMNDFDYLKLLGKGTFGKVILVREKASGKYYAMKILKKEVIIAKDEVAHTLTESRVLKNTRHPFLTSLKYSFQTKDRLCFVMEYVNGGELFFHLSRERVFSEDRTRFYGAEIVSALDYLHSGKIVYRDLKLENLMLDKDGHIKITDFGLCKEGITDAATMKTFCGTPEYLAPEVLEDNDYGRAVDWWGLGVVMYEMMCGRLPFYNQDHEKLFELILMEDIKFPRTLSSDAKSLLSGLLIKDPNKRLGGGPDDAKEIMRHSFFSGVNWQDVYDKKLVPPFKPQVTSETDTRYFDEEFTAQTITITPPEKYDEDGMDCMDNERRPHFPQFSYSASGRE
T2 sequence (Q52WX2 whole entry): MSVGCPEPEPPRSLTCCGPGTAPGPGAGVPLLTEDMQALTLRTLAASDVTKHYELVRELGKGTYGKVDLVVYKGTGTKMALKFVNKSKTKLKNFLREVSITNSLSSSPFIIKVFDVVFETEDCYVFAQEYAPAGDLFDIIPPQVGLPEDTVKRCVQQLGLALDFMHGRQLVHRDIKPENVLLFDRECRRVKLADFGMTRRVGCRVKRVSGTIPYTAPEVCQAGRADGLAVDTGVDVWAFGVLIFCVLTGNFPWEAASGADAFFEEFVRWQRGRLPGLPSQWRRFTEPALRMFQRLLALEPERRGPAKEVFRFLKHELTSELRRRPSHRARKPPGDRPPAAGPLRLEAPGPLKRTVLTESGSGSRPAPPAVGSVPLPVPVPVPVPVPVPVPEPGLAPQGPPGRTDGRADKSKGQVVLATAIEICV
T3 sequence (P57059 whole entry): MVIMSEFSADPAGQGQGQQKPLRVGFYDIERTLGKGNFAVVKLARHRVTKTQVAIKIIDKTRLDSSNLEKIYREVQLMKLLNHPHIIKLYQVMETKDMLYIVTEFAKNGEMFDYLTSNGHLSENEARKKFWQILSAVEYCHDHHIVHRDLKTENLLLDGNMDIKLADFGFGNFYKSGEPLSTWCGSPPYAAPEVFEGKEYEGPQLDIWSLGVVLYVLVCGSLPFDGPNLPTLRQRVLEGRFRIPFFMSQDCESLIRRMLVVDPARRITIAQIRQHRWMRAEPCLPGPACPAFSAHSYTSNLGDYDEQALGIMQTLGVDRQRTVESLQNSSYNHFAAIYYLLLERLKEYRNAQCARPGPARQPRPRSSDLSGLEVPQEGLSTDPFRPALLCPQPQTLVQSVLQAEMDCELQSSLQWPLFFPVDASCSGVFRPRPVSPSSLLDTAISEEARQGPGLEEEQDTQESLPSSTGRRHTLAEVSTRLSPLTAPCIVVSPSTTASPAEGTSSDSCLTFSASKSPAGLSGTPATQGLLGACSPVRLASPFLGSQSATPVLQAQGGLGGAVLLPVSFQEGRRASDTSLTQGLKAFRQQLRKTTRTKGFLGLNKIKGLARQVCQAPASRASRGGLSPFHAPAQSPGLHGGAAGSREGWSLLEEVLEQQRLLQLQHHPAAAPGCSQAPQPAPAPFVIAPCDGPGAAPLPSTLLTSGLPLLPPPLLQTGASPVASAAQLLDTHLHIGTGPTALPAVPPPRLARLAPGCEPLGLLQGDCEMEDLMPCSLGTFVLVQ
T5 sequence (Q86Y07 whole entry): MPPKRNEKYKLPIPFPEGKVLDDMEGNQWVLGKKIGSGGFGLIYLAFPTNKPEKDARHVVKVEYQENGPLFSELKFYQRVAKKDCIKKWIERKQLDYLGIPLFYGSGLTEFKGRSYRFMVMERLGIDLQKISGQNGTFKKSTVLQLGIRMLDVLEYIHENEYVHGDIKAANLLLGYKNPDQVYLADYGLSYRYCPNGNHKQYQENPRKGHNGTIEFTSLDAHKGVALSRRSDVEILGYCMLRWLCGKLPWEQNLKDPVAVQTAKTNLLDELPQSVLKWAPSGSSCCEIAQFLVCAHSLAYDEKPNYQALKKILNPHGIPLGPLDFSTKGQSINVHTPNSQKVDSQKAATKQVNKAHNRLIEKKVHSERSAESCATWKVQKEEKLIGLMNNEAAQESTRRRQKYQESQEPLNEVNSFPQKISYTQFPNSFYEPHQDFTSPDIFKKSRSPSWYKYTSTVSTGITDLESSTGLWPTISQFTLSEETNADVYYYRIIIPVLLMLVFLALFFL

Turning to `Nc1cc(C(F)(F)F)c(-c2cc(N3CCOCC3)nc(N3CCOCC3)n2)cn1` [Buparlisib], the remaining activity at 1 µM came out at 100% on panel of 442 kinases [1]; 94% on panel of 442 kinases [2]; 100% on panel of 442 kinases [3]; 84% on panel of 442 kinases [4]; 83% on panel of 442 kinases [5]; 93% on panel of 442 kinases [6]. Also, the remaining activity at 1 µM on panel of 442 kinases [7] was determined as 98%. For the same compound, the remaining activity at 10 µM on panel of 442 kinases [1] (10 µM, read-out: PRKX (% of control at 10 µM)) is 100%; at panel of 442 kinases [2] (10 µM, read-out: SBK1 (% of control at 10 µM)), 100%; at panel of 442 kinases [3] (10 µM, read-out: SIK (% of control at 10 µM)), 100%; on panel of 442 kinases [4] (setting [8]) it was 92%; on panel of 442 kinases [5] (10 µM, read-out: VRK2 (% of control at 10 µM)), 100%; on panel of 442 kinases [6] (10 µM, read-out: PLK4 (% of control at 10 µM)), 87%. The remaining activity at 10 µM at panel of 442 kinases [7] (setting [8]) was determined as 95%.

Consider `Cn1c(=O)n(-c2ccc(C(C)(C)C#N)cc2)c2c3cc(-c4cnc5ccccc5c4)ccc3ncc21` [Dactolisib, 2-methyl-2-[4-(3-methyl-2-oxo-8-quinolin-3-yl-2,3-dihydroimidazo[4,5-c]quinolin-1-yl)-phenyl] propionitrile], for which the remaining activity at 1 µM is 77% on panel of 442 kinases [1]; 92% on panel of 442 kinases [2]; 100% on panel of 442 kinases [3]; 84% on panel of 442 kinases [4]; 83% on panel of 442 kinases [5]; 94% on panel of 442 kinases [6]. For the same compound, at panel of 442 kinases [7], the remaining activity at 1 µM turned out to be 80%.

On to `COc1ncc(-c2ccc3nccc(-c4ccnnc4)c3c2)cc1NS(=O)(=O)c1ccc(F)cc1F` [Omipalisib], for which the remaining activity at 1 µM turned out to be 100% on panel of 442 kinases [1]; 100% on panel of 442 kinases [2]; 100% on panel of 442 kinases [3]; 100% at panel of 442 kinases [4]; 100% at panel of 442 kinases [5]; 61% at panel of 442 kinases [6]. Moreover, the remaining activity at 1 µM at panel of 442 kinases [7] came out at 100%.

With `FC(F)c1nc2ccccc2n1-c1nc(N2CCOCC2)nc(N2CCOCC2)n1` [ZSTK474, 2-(difluoromethyl)-1-[4,6-di(4-morpholinyl)-1,3,5-triazin-2-yl]-1H-benzimidazole], the remaining activity at 1 µM on panel of 442 kinases [1] was determined as 100%; on panel of 442 kinases [2], 100%; at panel of 442 kinases [3] it was 100%; at panel of 442 kinases [4], 66%; on panel of 442 kinases [5], 100%; on panel of 442 kinases [6], 84%. Besides, the remaining activity at 1 µM at panel of 442 kinases [7] came to 84%.
